Read-outs that look alike come from different tables or passages of the source.
Experiment: In vitro (pH stability) assay: intramolecular cyclization-release of capsaicin from the prodrug in buffer
Assay type: physicochemical
Conditions: for stability at pH 4.5 at room temperature in comparison to the non-acylated prodrug (compound 6): pH 4.5, RT
Experimental: The compounds described herein are examples of pH activated prodrugs whereby upon exposure to a specific pH, the half-life of the intramolecular cyclization-release reaction is determined. The intramolecular cyclization-release reaction results in the concomitant formation of a cyclic urea with the release of the parent drug.
Compounds were incubated in the buffer/biological media indicated. The reactions were conducted at either room temperature or 37° C. In some embodiments, additional common ingredients/formulations which may be used in buffers for the testing of the cyclization-release of the compounds described herein include but are not limited to: N-(2-Acetamido)-2-aminoethanesulfonic acid, N-(2-Acetamido)iminodiacetic acid, 2-Amino-2-methyl-1,3-propanediol, salts of bicarbonate, N,N-Bis(2-hydroxyethyl)glycine, 2-Bis(2-hydroxyethyl)amino-2-(hydroxymethyl)-1,3-propanediol, 3-(Cyclohexylamino)-1-propanesulfonic acid, 2-(Cyclohexylamino)ethanesulfonic acid, salts of carbonate, salts of citrate, 4-(2-Hydroxyethyl)-1-piperazinepropanesulfonic acid, salts of glycine, salts of Glycyl-glycine, 4-(2-Hydroxyethyl)piperazine-1-ethanesulfonic acid, 4-Morpholineethanesulfonic acid, 4-Morpholinepropanesulfonic acid, 1,4-Piperazinediethanesulfonic acid, salts of phosphate, salts of tartrate, 2-[(2-Hydroxy-1,1-bis(hydroxymethyl)ethyl)amino]ethanesulfonic acid, Tris(2-hydroxyethyl)amine, and salts of EDTA.
Samples were collected at specific time points, quenched with a 1.0% TFA in acetonitrile solution to stop the cyclization-release reaction and analyzed by HPLC for formation of released capsaicin, cyclic urea by-product, and consumption of starting compound in plasma and cerebrospinal fluid (CSF).

[1] = buffer (simulated physiological conditions), simulated physiological conditions, pH 7.4 & 37° C., read-out: half-life of conversion to capsaicin
[2] = pH = 4.5 (0.1M aqueous sodium acetate buffer), RT, read-out: Intramolecular Cyclization-Release Half-life (T1/2) at pH 4.5 & RT (converted)
[3] = pH = 7.4 (0.2M aqueous tris buffer), 37° C., read-out: Intramolecular Cyclization-Release Half-life (T1/2) at pH 7.4 & 37° C.

SMILES: CNCC1CN(C(=O)CCOCCOCCOCCOCCOCCOCCOCCOCCOCCOC)CCN1C(=O)Oc1ccc(CNC(=O)CCCC/C=C/C(C)C)cc1OC (stereo not drawn) [Compound 3, (E)-2-methoxy-4-((8-methylnon-6-enamido)methyl)phenyl 4-(2,5,8,11,14,17,20,23,26,29-decaoxadotriacontan-32-oyl)-2-((methylamino)methyl)piperazine-1-carboxylate]
- half-life [1]: < 5 min
- stability at pH 4.5 at room temperature in comparison to the non-acylated prodrug (compound 6): significant and unexpected increase in stability
- half-life [2]: 3060 min
- half-life [3]: ~0.8 min

SMILES: CNCC1CN(C(=O)CCOCCOCCOCCOC)CCN1C(=O)Oc1ccc(CNC(=O)CCCC/C=C/C(C)C)cc1OC (stereo not drawn) [Compound 1, (E)-2-methoxy-4-((8-methylnon-6-enamido)methyl)phenyl 2-((methylamino)methyl)-4-(2,5,8,11-tetraoxatetradecan-14-oyl)piperazine-1-carboxylate]
- half-life [1]: < 5 min
- stability at pH 4.5 at room temperature in comparison to the non-acylated prodrug (compound 6): significant and unexpected increase in stability
- half-life [2]: 2600 min
- half-life [3]: ~0.8 min

SMILES: CNCC1CN(C(=O)CCOCCOCCOCCOCCOCCOCCOC)CCN1C(=O)Oc1ccc(CNC(=O)CCCC/C=C/C(C)C)cc1OC (stereo not drawn) [Compound 2, (E)-2-methoxy-4-((8-methylnon-6-enamido)methyl)phenyl 2-((methylamino)methyl)-4-(2,5,8,11,14,17,20-heptaoxatricosan-23-oyl)piperazine-1-carboxylate]
- half-life [1]: < 5 min
- stability at pH 4.5 at room temperature in comparison to the non-acylated prodrug (compound 6): significant and unexpected increase in stability
- half-life [2]: 2450 min
- half-life [3]: ~0.7 min

SMILES: CNCC1CN(C)CCN1C(=O)Oc1ccc(CNC(=O)CCCC/C=C/C(C)C)cc1OC (stereo not drawn) [Compound 6, (E)-2-methoxy-4-((8-methylnon-6-enamido)methyl)phenyl 4-methyl-2-((methylamino)methyl)piperazine-1-carboxylate]
- half-life [1]: < 5 min
- half-life [2]: 78 min
- half-life [3]: ~0.8 min

SMILES: CCOC(=O)N1CCN(C(=O)Oc2ccc(CNC(=O)CCCC/C=C/C(C)C)cc2OC)C(CNC)C1 (stereo not drawn) [Compound 8, (E)-4-ethyll-(2-methoxy-4-((8-methylnon-6-enamido)methyl)phenyl) 2-((methylamino)methyl)piperazine-1,4-dicarboxylate]
- half-life [1]: < 5 min
- stability at pH 4.5 at room temperature in comparison to the non-acylated prodrug (compound 6): significant and unexpected increase in stability
- half-life [2]: 2770 min
- half-life [3]: ~1.3 min

SMILES: CNCC1CNCCN1C(=O)Oc1ccc(CNC(=O)CCCC/C=C/C(C)C)cc1OC (stereo not drawn) [Compound 5]
- half-life [1]: < 5 min
- half-life [3]: ~0.4 min

SMILES: CNCC1CN(C(C)=O)CCN1C(=O)Oc1ccc(CNC(=O)CCCC/C=C/C(C)C)cc1OC (stereo not drawn) [Compound 7, (E)-2-methoxy-4-((8-methylnon-6-enamido)methyl)phenyl 4-acetyl-2-((methylamino)methyl)piperazine-1-carboxylate]
- half-life [1]: < 5 min
- stability at pH 4.5 at room temperature in comparison to the non-acylated prodrug (compound 6): significant and unexpected increase in stability
- half-life [2]: 6930 min
- half-life [3]: ~0.9 min

SMILES: CNCC1CN(C(=O)CCOCCOCCOCCOCCOCCOCCOCCOCCOCCOCCOCCOCCOC)CCN1C(=O)Oc1ccc(CNC(=O)CCCC/C=C/C(C)C)cc1OC (stereo not drawn) [Compound 4, (E)-2-methoxy-4-((8-methylnon-6-enamido)methyl)phenyl 4-(2,5,8,11,14,17,20,23,26,29,32,35,38-tridecaoxahentetracontan-41-oyl)-2-((methylamino)methyl)piperazine-1-carboxylate]
- half-life [1]: < 5 min
- half-life [3]: ~0.6 min

Reference: patent US20220112165A1, “PEGYLATED PRODRUGS OF PHENOLIC TRPV1 AGONISTS” (priority 2018, published 2022)
